# Values joined by “and” are separate entries in the source; they are usually repeats but may differ in a detail not shown here. Equal entries are not always repeated. Structures can show the parent of a compound that is named as a salt.
# Test system: HBMEC cells
# Test: Blood–brain barrier transport study in HBMEC Transwell monolayer
# Settings: AerExt 40 µg mL^−1 / RootExt 20 µg mL^−1; 2, 4, 24 h
row,Compound,crossing of the HBMEC-BBB
1,O=Cc1ccc(O)c(O)c1 [Protocatechuic aldehyde],could not cross the HBMEC-BBB
2,O=c1cc(-c2ccc(O)c(O)c2)oc2cc(O)cc(O)c12 [Luteolin],could not cross the HBMEC-BBB

# Same assay, conditions: AerExt 40 µg mL^−1 apical; 2 h; n.q. = not quantified in the basolateral compartment
row,Compound,AerExt Te (%) ± SD 2 h
1,COc1cc2ccc(=O)oc2c(OC)c1O [Isofraxidin],n.q.
2,COc1ccc(O)c(C=O)c1 [2-hydroxy-5-methoxybenzaldehyde],18.8 ± 2.3%
3,C=C(C)[C@@H]1CC[C@@]2(C)CCC(=O)C(C)=C2C1 [α-cyperone],12.2 ± 0.1%
4,O=Cc1ccc(O)c(O)c1 [Protocatechuic aldehyde],n.q.
5,COc1cc(/C=C/C(=O)O)ccc1O [Ferulic acid],1.9 ± 0.2%
6,O=Cc1ccc(O)cc1 [4-hydroxybenzaldehyde],23.3 ± 3.1%
7,c1ccc2c(c1)[nH]c1cnccc12 [Norharman],2.3 ± 0.1%
8,C=C1CC[C@H]2O[C@]2(C)CC[C@@H]2[C@@H]1CC2(C)C [(–)-caryophyllene oxide],4.3 ± 0.1%
9,CC1=C[C@H]2[C@@H](CC1=O)[C@H](C)C[C@H](O)[C@H]2C(C)C [8-hydroxyageraphorone],n.q.
10,CC1(C)C[C@H](O)C[C@@]2(C)OC(=O)C=C12 [Loliolide],6.2 ± 0.7%
11,COc1cc2ccc(=O)oc2cc1O [7-hydroxy-6-methoxycoumarin],0.6 ± 0.2%

# Same assay, conditions: AerExt 40 µg mL^−1 apical; 2 h; n.q. = not quantified in the basolateral compartment; listed as ferulic acid
row,Compound,AerExt Te (%) ± SD 2 h [%]
1,COc1cc(/C=C/C(=O)O)ccc1O [Ferulic acid],2

# Same assay, conditions: AerExt 40 µg mL^−1 apical; 4 h; n.q. = not quantified in the basolateral compartment
row,Compound,AerExt Te (%) ± SD 4 h
1,COc1cc2ccc(=O)oc2c(OC)c1O [Isofraxidin],n.q.
2,COc1ccc(O)c(C=O)c1 [2-hydroxy-5-methoxybenzaldehyde],9.1 ± 1.2%
3,C=C(C)[C@@H]1CC[C@@]2(C)CCC(=O)C(C)=C2C1 [α-cyperone],25.1 ± 1.4%
4,O=Cc1ccc(O)c(O)c1 [Protocatechuic aldehyde],n.q.
5,COc1cc(/C=C/C(=O)O)ccc1O [Ferulic acid],1.9 ± 0.2%
6,O=Cc1ccc(O)cc1 [4-hydroxybenzaldehyde],18.5 ± 0.3%
7,c1ccc2c(c1)[nH]c1cnccc12 [Norharman],5.3 ± 1.4%
8,C=C1CC[C@H]2O[C@]2(C)CC[C@@H]2[C@@H]1CC2(C)C [(–)-caryophyllene oxide],8.6 ± 0.6%
9,CC1=C[C@H]2[C@@H](CC1=O)[C@H](C)C[C@H](O)[C@H]2C(C)C [8-hydroxyageraphorone],n.q.
10,CC1(C)C[C@H](O)C[C@@]2(C)OC(=O)C=C12 [Loliolide],12.1 ± 0.8%
11,COc1cc2ccc(=O)oc2cc1O [7-hydroxy-6-methoxycoumarin],1.9 ± 0.1%

# Same assay, conditions: AerExt 40 µg mL^−1 apical; 24 h; n.q. = not quantified in the basolateral compartment
row,Compound,AerExt Te (%) ± SD 24 h
1,COc1cc2ccc(=O)oc2c(OC)c1O [Isofraxidin],n.q.
2,COc1ccc(O)c(C=O)c1 [2-hydroxy-5-methoxybenzaldehyde],11.0 ± 1.3%
3,C=C(C)[C@@H]1CC[C@@]2(C)CCC(=O)C(C)=C2C1 [α-cyperone],56.5 ± 6.5%
4,O=Cc1ccc(O)c(O)c1 [Protocatechuic aldehyde],n.q.
5,COc1cc(/C=C/C(=O)O)ccc1O [Ferulic acid],19.8 ± 10.3%
6,O=Cc1ccc(O)cc1 [4-hydroxybenzaldehyde],49.4 ± 5.9%
7,c1ccc2c(c1)[nH]c1cnccc12 [Norharman],4.1 ± 0.2%
8,C=C1CC[C@H]2O[C@]2(C)CC[C@@H]2[C@@H]1CC2(C)C [(–)-caryophyllene oxide],8.8 ± 0.7%
9,CC1=C[C@H]2[C@@H](CC1=O)[C@H](C)C[C@H](O)[C@H]2C(C)C [8-hydroxyageraphorone],n.q.
10,CC1(C)C[C@H](O)C[C@@]2(C)OC(=O)C=C12 [Loliolide],12.4 ± 0.8%
11,COc1cc2ccc(=O)oc2cc1O [7-hydroxy-6-methoxycoumarin],6.1 ± 1.5%

# Same assay, conditions: AerExt 40 µg mL^−1 apical; 24 h; n.q. = not quantified in the basolateral compartment; listed as ferulic acid
row,Compound,AerExt Te (%) ± SD 24 h [%]
1,COc1cc(/C=C/C(=O)O)ccc1O [Ferulic acid],20

# Same assay, conditions: RootExt 20 µg mL^−1 apical; 2 h; n.q. = not quantified in the basolateral compartment
row,Compound,RootExt Te (%) ± SD 2 h
1,COc1cc2ccc(=O)oc2c(OC)c1O [Isofraxidin],n.q.
2,COc1ccc(O)c(C=O)c1 [2-hydroxy-5-methoxybenzaldehyde],31.8 ± 8.0%
3,C=C(C)[C@@H]1CC[C@@]2(C)CCC(=O)C(C)=C2C1 [α-cyperone],15.4 ± 2.6%
4,O=Cc1ccc(O)c(O)c1 [Protocatechuic aldehyde],n.q.
5,COc1cc(/C=C/C(=O)O)ccc1O [Ferulic acid],n.q.
6,O=Cc1ccc(O)cc1 [4-hydroxybenzaldehyde],62.1 ± 21.9%
7,C=C1CC[C@H]2O[C@]2(C)CC[C@@H]2[C@@H]1CC2(C)C [(–)-caryophyllene oxide],n.q.
8,CC1=C[C@H]2[C@@H](CC1=O)[C@H](C)C[C@H](O)[C@H]2C(C)C [8-hydroxyageraphorone],n.q.
9,COc1cc2ccc(=O)oc2cc1O [7-hydroxy-6-methoxycoumarin],n.q.

# Same assay, conditions: RootExt 20 µg mL^−1 apical; 4 h; n.q. = not quantified in the basolateral compartment
row,Compound,RootExt Te (%) ± SD 4 h
1,COc1cc2ccc(=O)oc2c(OC)c1O [Isofraxidin],n.q.
2,COc1ccc(O)c(C=O)c1 [2-hydroxy-5-methoxybenzaldehyde],36.3 ± 10.9%
3,C=C(C)[C@@H]1CC[C@@]2(C)CCC(=O)C(C)=C2C1 [α-cyperone],20.1 ± 12.0%
4,O=Cc1ccc(O)c(O)c1 [Protocatechuic aldehyde],n.q.
5,COc1cc(/C=C/C(=O)O)ccc1O [Ferulic acid],n.q.
6,O=Cc1ccc(O)cc1 [4-hydroxybenzaldehyde],57.5 ± 1.7%
7,C=C1CC[C@H]2O[C@]2(C)CC[C@@H]2[C@@H]1CC2(C)C [(–)-caryophyllene oxide],n.q.
8,CC1=C[C@H]2[C@@H](CC1=O)[C@H](C)C[C@H](O)[C@H]2C(C)C [8-hydroxyageraphorone],n.q.
9,COc1cc2ccc(=O)oc2cc1O [7-hydroxy-6-methoxycoumarin],n.q.

# Same assay, conditions: RootExt 20 µg mL^−1 apical; 24 h; n.q. = not quantified in the basolateral compartment
row,Compound,RootExt Te (%) ± SD 24 h
1,COc1cc2ccc(=O)oc2c(OC)c1O [Isofraxidin],30.5 ± 6.6%
2,COc1ccc(O)c(C=O)c1 [2-hydroxy-5-methoxybenzaldehyde],164.8 ± 21.0%
3,C=C(C)[C@@H]1CC[C@@]2(C)CCC(=O)C(C)=C2C1 [α-cyperone],187% and 187.3 ± 12.5%
4,COc1cc(/C=C/C(=O)O)ccc1O [Ferulic acid],n.q.
5,O=Cc1ccc(O)cc1 [4-hydroxybenzaldehyde],184.6 ± 23.0%
6,C=C1CC[C@H]2O[C@]2(C)CC[C@@H]2[C@@H]1CC2(C)C [(–)-caryophyllene oxide],n.q.
7,CC1=C[C@H]2[C@@H](CC1=O)[C@H](C)C[C@H](O)[C@H]2C(C)C [8-hydroxyageraphorone],124.7 ± 16.9%
8,COc1cc2ccc(=O)oc2cc1O [7-hydroxy-6-methoxycoumarin],n.q.

# Same assay, conditions: after AerExt 40 µg mL^−1 treatment of HBMEC
row,Compound,abundance in the apical compartment relative to the basolateral compartment (times higher) [times]
1,apigenin sulfate,~40
2,COc1cc(/C=C/C(=O)O)ccc1OS(=O)(=O)O [ferulic acid sulfate],~40

# Same assay, conditions: after AerExt 40 µg mL^−1 treatment of HBMEC; tentatively identified metabolites; 24 h
row,Compound,Te of newly formed sulfated metabolites [%]
1,apigenin sulfate,2.7
2,COc1cc(/C=C/C(=O)O)ccc1OS(=O)(=O)O [ferulic acid sulfate],2.3

# Test system: not given
# Test: not given
# Settings: oil/water partition coefficient; Table 1; ref PubChem; cited from earlier work
row,Compound,log p
1,COc1cc2ccc(=O)oc2c(OC)c1O [Isofraxidin],1.5
2,CC(C)=CCCC(C)(O)[C@H]1CC[C@]2(C)[C@@H]1[C@H](O)C[C@@H]1[C@@]3(C)CC[C@H](O)C(C)(C)[C@@H]3CC[C@]12C (stereo in doubt) [Protopanaxadiol],7.2
3,Farnesyl acetate,5.3
4,COc1ccc(O)c(C=O)c1 [2-hydroxy-5-methoxybenzaldehyde],1.8
5,C=C(C)[C@@H]1CC[C@@]2(C)CCC(=O)C(C)=C2C1 [α-cyperone],3.8
6,O=Cc1ccc(O)c(O)c1 [Protocatechuic aldehyde],1.3
7,c1ccc2c(c1)[nH]c1cnccc12 [Norharman],3.2
8,C=C1CC[C@H]2O[C@]2(C)CC[C@@H]2[C@@H]1CC2(C)C [(–)-caryophyllene oxide],3.6
9,CC1=C[C@H]2[C@@H](CC1=O)[C@H](C)C[C@H](O)[C@H]2C(C)C [8-hydroxyageraphorone],2.9
10,CC1(C)C[C@H](O)C[C@@]2(C)OC(=O)C=C12 [Loliolide],1.0
11,COc1cc2ccc(=O)oc2cc1O [7-hydroxy-6-methoxycoumarin],1.5

# Test system: not listed separately
# Test: Parallel artificial membrane permeability assay for the blood–brain barrier (PAMPA-BBB)
# Settings: PAMPA, pH 7.4
# Method: The permeability of bioactive compounds from AerExt and RootExt across the BBB was assessed using the PAMPA-BBB assay, following the methodology described by [11]. Firstly, the BBB solution was prepared by dissolving 8 mg of PBL and 4 mg of cholesterol in 600 μL of n-dodecane. The initial donor solution was prepared by mixing 1 mL of AerExt or RootExt (at 10 mg mL^−1 in EtOH) with 1 mL of buffer (PBS, pH = 7.4, 10 mM). The filter membrane of the donor plate was coated with 5 μL of BBB solution. The acceptor plate was filled with 350 μL of buffer, and the donor plate was carefully placed on top of the acceptor plate to form a “sandwich-like” assembly. Subsequently, 350 μL of the donor solution was added to the donor plate, which was then covered and incubated at 37 °C for 4 h in the dark. After the incubation time, 300 μL of the solution was collected from each plate, transferred into separate vials, and evaporated using a SpeedVac system at 40 °C under 13 mbar pressure. The dried acceptor and donor solutions were dissolved in 50 μL of pure EtOH before being subjected to HPLC-Q-TOF-MS/MS and GC-Q-TOF-MS analysis. Permeability (Pe) across the PAMPA-BBB of the bioactive compound was calculated according to Equation (1) [54], with modifications in concentration rates.Pe = −ln[1 − CA(t)/Cequilibrium]/(A × (1/VD + 1/VA) × t)(1)
# Cequilibrium was calculated according to Equation (2):Cequilibrium = [CD(t) × VD + CA(t) × VA]/(VD + VA)(2)
# The HPLC-MS and GC-MS chromatograms were processed using the Agilent Mass Hunter Qualitative software (version B.10.0) to verify the retention time and exact mass of the compounds previously reported by us [25] and to extract their peak area to calculate the BBB permeability.
row,Compound,Papp at 4 h [×10⁻⁶ cm/s]
1,O=c1cc(-c2ccc(O)c(O)c2)oc2cc(O)cc(O)c12 [Luteolin],26.3

# Same assay, conditions: compound within AerExt donor solution; 37 °C, 4 h, PBS pH 7.4; n.q. = not quantified in the acceptor plate
row,Compound,AerExt log Pe
1,CC(C)=CCCC(C)(O)[C@H]1CC[C@]2(C)[C@@H]1[C@H](O)C[C@@H]1[C@@]3(C)CC[C@H](O)C(C)(C)[C@@H]3CC[C@]12C (stereo in doubt) [Protopanaxadiol],n.q.
2,Farnesyl acetate,−5.25

# Same assay, conditions: compound within RootExt donor solution; 37 °C, 4 h, PBS pH 7.4; n.q. = not quantified in the acceptor plate
row,Compound,RootExt log Pe
1,CC(C)=CCCC(C)(O)[C@H]1CC[C@]2(C)[C@@H]1[C@H](O)C[C@@H]1[C@@]3(C)CC[C@H](O)C(C)(C)[C@@H]3CC[C@]12C (stereo in doubt) [Protopanaxadiol],n.q.
2,COc1cc(/C=C/C(=O)O)ccc1O [Ferulic acid],n.q.
